For 16 compounds, remaining activity and IC50 results are on record in US20230122344A1, “ANTAGONISTS OF THE MUSCARINIC ACETYLCHOLINE RECEPTOR M4” (Vanderbilt University, priority 2019, published 2023).

In the experiment the target is T1, Human M4 (Homo sapiens, UniProt P08173).
T1 construct: expressed in transfected cells; host or cells: CHO-K1 (ATCC), co-transfected with chimeric G protein Gqi5
T1 sequence (P08173 1-479): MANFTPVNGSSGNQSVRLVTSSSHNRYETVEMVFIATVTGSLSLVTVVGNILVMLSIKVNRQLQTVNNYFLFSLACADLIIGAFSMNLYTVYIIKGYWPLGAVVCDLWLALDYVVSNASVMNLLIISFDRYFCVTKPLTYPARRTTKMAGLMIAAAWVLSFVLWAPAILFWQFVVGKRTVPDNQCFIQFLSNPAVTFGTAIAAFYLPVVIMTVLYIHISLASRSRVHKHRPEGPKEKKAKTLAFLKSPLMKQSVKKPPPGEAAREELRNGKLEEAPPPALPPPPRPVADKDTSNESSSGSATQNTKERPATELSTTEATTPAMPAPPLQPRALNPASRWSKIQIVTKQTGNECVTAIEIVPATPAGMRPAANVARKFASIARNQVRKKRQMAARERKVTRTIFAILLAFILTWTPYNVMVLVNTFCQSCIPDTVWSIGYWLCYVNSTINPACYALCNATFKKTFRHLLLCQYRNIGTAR
Put plainly: mAChR M4 cell-based functional assay (calcium flux, antagonism of EC80 acetylcholine response). Conditions: M4/Gqi5/CHO-K1 cells; for remaining activity at 30 µM: CHO-K1, % ACh maximum at 30 μM, read-out: Human M4 Emin; for IC50: decrease of response elicited by EC80 acetylcholine. The method, then: Human or rat M4 cDNA, along with the chimeric G protein Gqi5, were transfected into Chinese hamster ovary (CHO-K1) cells purchased from the American Type Culture Collection using Lipofectamine2000. M4/Gqi5/CHO cells were grown in Ham's F-12 medium containing 10% heat-inactivated fetal bovine serum (FBS), 20 mM HEPES, 500 μg/mL G418 sulfate, and 200 μg/mL Hygromycin B.
For high throughput measurement of agonist-evoked increases in intracellular calcium, CHO-K1 cells stably expressing muscarinic receptors were plated in growth medium lacking G418 and hygromycin at 15,000 cells/20 μL/well in Greiner 384-well black-walled, tissue culture (TC)-treated, clear-bottom plates (VWR). Cells were incubated overnight at 37° C. and 5% CO2. The next day, cells were washed using an ELX 405 (BioTek) with assay buffer; the final volume was then aspirated to 20 μL. Next, 20 μL of a 2.3 μM stock of Fluo-4/acetoxymethyl ester (Invitrogen, Carlsbad, Calif.), prepared as a 2.3 mM stock in DMSO and mixed in a 1:1 ratio with 10% (w/v) Pluronic F-127 and diluted in assay buffer, was added to the wells and the cell plates were incubated for 50 min at 37° C. and 5% CO2. Dye was removed by washing with the ELX 405 and the final volume was aspirated to 20 μL. Compound master plates were formatted in a 10 point concentration-response curve (CRC) format (1:3 dilutions) in 100% DMSO with a starting concentration of 10 or 1 mM using a BRAVO liquid handler (Agilent). Test compound CRCs were then transferred to daughter plates (240 nL) using the Echo acoustic plate reformatter (Labcyte, Sunnyvale, Calif.) and then diluted into assay buffer (40 μL) to a 2× stock using a Thermo Fisher Combi (Thermo Fisher Scientific, Waltham, Mass.).
Calcium flux was measured using the Functional Drug Screening System (FDSS) 6000 or 7000 (Hamamatsu Corporation, Tokyo, Japan) as an increase in the fluorescent static ratio. Compounds were applied to cells (20 μL, 2×) using the automated system of the FDSS at 2 seconds into the protocol and the data were collected at 1 Hz. At 143 s, 10 μL of an EC20 concentration of the muscarinic receptor agonist acetylcholine was added (5×), followed by the addition of 12 μL of an EC80 concentration of acetylcholine at the 268 s time point (5×). Agonist activity was analyzed as a concentration-dependent increase in calcium mobilization upon compound addition. Positive allosteric modulator activity was analyzed as a concentration-dependent increase in the EC20 acetylcholine response. Antagonist activity was analyzed as a concentration-dependent decrease in the EC80 acetylcholine response; for the purposes of the tables herein, an IC50 (inhibitory concentration 50) was calculated as a concentration-dependent decrease of the response elicited by an EC80 concentration of acetylcholine. Concentration-response curves were generated using a four-parameter logistical equation in XLFit curve fitting software (IDBS, Bridgewater, N.J.) for Excel (Microsoft, Redmond, Wash.) or Prism (GraphPad Software, Inc., San Diego, Calif.) or the Dotmatics software platform (Dotmatics, Bishop's Stortford, UK).
Compounds were synthesized as described above. Activity (IC50 and Emin) was determined in the mAChR M4 cell-based functional assay as described above and the data are shown in Table 2.
On the technique in general: A change in cytosolic calcium serves as a functional read-out for many receptors and channels.

For orientation: IC50 means the midpoint of a concentration-inhibition curve.

For the compound `[2H]C([2H])(C1CCOCC1)N1C[C@H]2C[C@H](Nc3nnc(-c4ccc5ccccc5c4)c(C)c3C)C[C@H]2C1` [compound 71, (3aR,5s,6aS)-N-(4,5-dimethyl-6-(naphthalen-2-yl)pyridazin-3-yl)-2-((tetrahydro-2H-pyran-4-yl)methyl-d2)octahydrocyclopenta[c]pyrrol-5-amine], the remaining activity at 30 µM is 2% and the IC50 was 12.7 nM.

Regarding `[2H]C([2H])(C1CCOCC1)N1C[C@H]2C[C@H](Nc3cc(C)c(-c4ccc5nn(C)cc5c4)nn3)C[C@H]2C1` [compound 19, (3aR,5s,6aS)-N-(5-methyl-6-(2-methyl-2H-indazol-5-yl)pyridazin-3-yl)-2-((tetrahydro-2H-pyran-4-yl)methyl-d2)octahydrocyclopenta[c]pyrrol-5-amine], the remaining activity at 30 µM was found to be 4% and the half-maximal inhibitory concentration (IC50) is 1.62 nM.

On to `COc1cc(-c2ccc3nn(C)cc3c2)nnc1N[C@H]1C[C@@H]2CN(CC3CCOCC3)C[C@@H]2C1` [compound 5, (3aR,5s,6aS)-N-(4-methoxy-6-(2-methyl-2H-indazol-5-yl)pyridazin-3-yl)-2-((tetrahydro-2H-pyran-4-yl)methyl)octahydrocyclopenta[c]pyrrol-5-amine], for which the remaining activity at 30 µM was determined as 3% and the IC50 turned out to be 3.89 nM.

As for `[2H]C([2H])(C1CCOCC1)N1C[C@H]2C[C@H](Nc3nnc(-c4ccc(F)cc4)c(C)c3C)C[C@H]2C1` [compound 70, (3aR,5s,6aS)-N-(6-(4-fluorophenyl)-4,5-dimethylpyridazin-3-yl)-2-((tetrahydro-2H-pyran-4-yl)methyl-d2)octahydrocyclopenta[c]pyrrol-5-amine], the remaining activity at 30 µM was found to be 11% and the concentration for half-maximal inhibition (IC50) was 24.1 nM.

In the case of `[2H]C([2H])(C1CCOCC1)N1C[C@H]2C[C@H](Nc3cc(C)c(-c4cc(F)ccc4F)nn3)C[C@H]2C1` [compound 17, (3aR,5s,6aS)-N-(6-(2,5-difluorophenyl)-5-methylpyridazin-3-yl)-2-((tetrahydro-2H-pyran-4-yl)methyl-d2)octahydrocyclopenta[c]pyrrol-5-amine], the remaining activity at 30 µM was determined as 3% and the IC50 was determined as 0.58 nM.

`[2H]C([2H])(C1CCOCC1)N1C[C@H]2C[C@H](Nc3cc(C4(C(F)(F)F)CC4)c(-c4cc(F)c(F)cc4F)nn3)C[C@H]2C1` [compound 38, (3aR,5s,6aS)-2-((tetrahydro-2H-pyran-4-yl)methyl-d2)-N-(5-(1-(trifluoromethyl)cyclopropyl)-6-(2,4,5-trifluorophenyl)pyridazin-3-yl)octahydrocyclopenta[c]pyrrol-5-amine]: the remaining activity at 30 µM is 3% and the 50% inhibitory concentration (IC50) worked out at 46.3 nM.

For `[2H]C([2H])(C1CCOCC1)N1C[C@H]2C[C@H](Nc3cc(C)c(-c4cc(F)ccc4Cl)nn3)C[C@H]2C1` [compound 18, (3aR,5s,6aS)-N-(6-(2-chloro-5-fluorophenyl)-5-methylpyridazin-3-yl)-2-((tetrahydro-2H-pyran-4-yl)methyl-d2)octahydrocyclopenta[c]pyrrol-5-amine], the remaining activity at 30 µM came to 3% and the IC50 is 0.44 nM.

On to `[2H]C([2H])(C1CCOCC1)N1C[C@H]2C[C@H](Nc3nnc(-c4cc(F)ccc4F)c(C)c3C)C[C@H]2C1` [compound 60, (3aR,5s,6aS)-N-(6-(2,5-difluorophenyl)-4,5-dimethylpyridazin-3-yl)-2-((tetrahydro-2H-pyran-4-yl)methyl-d2)octahydrocyclopenta[c]pyrrol-5-amine], for which the remaining activity at 30 µM is 2% and the 50% inhibitory concentration (IC50) is 0.66 nM.

`Cc1c(Cl)nnc(N[C@H]2C[C@@H]3CN(CC4CCOCC4)C[C@@H]3C2)c1C#N` [compound 65, 6-chloro-5-methyl-3-(((3aR,5s,6aS)-2-((tetrahydro-2H-pyran-4-yl)methyl)octahydrocyclopenta[c]pyrrol-5-yl)amino)pyridazine-4-carbonitrile]: the remaining activity at 30 µM is 8% and the IC50 worked out at 2930 nM.

Take `COc1cc(-c2cc(F)ccc2F)nnc1N[C@H]1C[C@@H]2CN(CC3CCOCC3)C[C@@H]2C1` [compound 4, (3aR,5s,6aS)-N-(6-(2,5-difluorophenyl)-4-methoxypyridazin-3-yl)-2-((tetrahydro-2H-pyran-4-yl)methyl)octahydrocyclopenta[c]pyrrol-5-amine]: the remaining activity at 30 µM turned out to be 3% and the IC50 was found to be 12 nM.

On to `[2H]C([2H])(C1CCOCC1)N1C[C@H]2C[C@H](Nc3nnc(-c4cc(F)ccc4C)cc3C)C[C@H]2C1` [compound 20, (3aR,5s,6aS)-N-(6-(5-fluoro-2-methylphenyl)-4-methylpyridazin-3-yl)-2-((tetrahydro-2H-pyran-4-yl)methyl-d2)octahydrocyclopenta[c]pyrrol-5-amine], for which the remaining activity at 30 µM is 3% and the IC50 worked out at 0.54 nM.

In the case of `[2H]C([2H])(C1CCOCC1)N1C[C@H]2C[C@H](Nc3nnc(-c4cc(F)cc(F)c4F)cc3C(F)F)C[C@H]2C1` [compound 88, (3aR,5s,6aS)-N-(4-(difluoromethyl)-6-(2,3,5-trifluorophenyl)pyridazin-3-yl)-2-((tetrahydro-2H-pyran-4-yl)methyl-d2)octahydrocyclopenta[c]pyrrol-5-amine], the remaining activity at 30 µM worked out at 3% and the concentration for half-maximal inhibition (IC50) came out at 10 nM.

Regarding `[2H]C([2H])(C1CCOCC1)N1C[C@H]2C[C@H](Nc3nnc(-c4ccc5nn(C)cc5c4C)cc3C)C[C@H]2C1` [compound 23, (3aR,5s,6aS)-N-(6-(2,4-dimethyl-2H-indazol-5-yl)-4-methylpyridazin-3-yl)-2-((tetrahydro-2H-pyran-4-yl)methyl-d2)octahydrocyclopenta[c]pyrrol-5-amine], the remaining activity at 30 µM was 3% and the half-maximal inhibitory concentration (IC50) was 0.59 nM.

Take `Cc1ccc(F)cc1-c1cc(-c2cc(F)ccc2C)c(N[C@H]2C[C@@H]3CN(CC4CCOCC4)C[C@@H]3C2)nn1` [compound 10, (3aR,5s,6aS)-N-(4,6-bis(5-fluoro-2-methylphenyl)pyridazin-3-yl)-2-((tetrahydro-2H-pyran-4-yl)methyl)octahydrocyclopenta[c]pyrrol-5-amine]: the remaining activity at 30 µM is 3% and the IC50 came out at 384 nM.

In the case of `Cc1c(-c2ccccc2F)nnc(N[C@H]2C[C@@H]3CN(CC4CCOCC4)C[C@@H]3C2)c1C#N` [compound 68, 6-(2-fluorophenyl)-5-methyl-3-(((3aR,5s,6aS)-2-((tetrahydro-2H-pyran-4-yl)methyl)octahydrocyclopenta[c]pyrrol-5-yl)amino)pyridazine-4-carbonitrile], the remaining activity at 30 µM is 3% and the IC50 worked out at 0.97 nM.

For `[2H]C([2H])(C1CCOCC1)N1C[C@H]2C[C@H](Nc3nnc(-c4ccccc4)cc3C)C[C@H]2C1` [compound 24, (3aR,5s,6aS)-N-(4-methyl-6-phenylpyridazin-3-yl)-2-((tetrahydro-2H-pyran-4-yl)methyl-d2)octahydrocyclopenta[c]pyrrol-5-amine], the remaining activity at 30 µM worked out at 4% and the IC50 was determined as 1.63 nM.
